The target of one assay is T1, human B1 receptor (Homo sapiens, UniProt P46663).
T1 construct: host or cells: CHO-K1
T1 sequence (P46663 1-353): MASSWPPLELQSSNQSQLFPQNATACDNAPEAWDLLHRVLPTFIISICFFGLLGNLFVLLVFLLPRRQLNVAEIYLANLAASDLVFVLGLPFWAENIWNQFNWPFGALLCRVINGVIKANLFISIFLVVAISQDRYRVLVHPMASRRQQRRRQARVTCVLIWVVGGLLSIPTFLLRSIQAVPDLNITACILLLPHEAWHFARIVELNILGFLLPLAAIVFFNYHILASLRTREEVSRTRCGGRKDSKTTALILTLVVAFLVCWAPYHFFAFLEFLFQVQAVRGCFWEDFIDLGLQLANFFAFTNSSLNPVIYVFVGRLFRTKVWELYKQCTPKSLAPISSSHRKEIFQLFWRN
Briefly: Calcium flux assay (FLIPR) with recombinant CHO-K1 cells expressing human B1 receptor. It counts as cell-based. The note with it: absence of 0.1% BSA in assay buffer, agonist Lys-(Des-Arg)-Bradykinin, read-out: hB1 free IC50. On the procedure:
The potency to inhibit the Bradykinin B1 receptors was determined for the example compounds of this invention in a cell-based fluorescent calcium-mobilisation assay. The assay measures the ability of example compounds to inhibit Bradykinin B1 receptor agonist-induced increase of intracellular free Ca^2+ in the cell line expressing B1 receptor. Specifically, calcium indicator—loaded cells are pre-incubated in the absence or presence of different concentrations of example compounds followed by the stimulation with a selective B1 receptor agonist peptide. The change of the intracellular Ca^2+ concentration is monitored with a fluorescent plate reader FLIPR (Molecular Devices).
Calcium flux Assay (FLIPR) with recombinant cells for Bradykinin B1 receptor antagonist, either in the presence (hB1 IC50) or absence (hB1 free IC50) of 0.1% BSA in assay buffer
CHO-K1 cell line expressing human B1 receptor was purchased from Euroscreen (Gosselies, Belgium, with reference name hB1-D1). The cells were grown in Nutrient Mixture Ham's F12 (Sigma) containing 10% Foetal bovine serum (Sigma) and 400 μg/mL G418 (Sigma), 5 μg/mL puromycin (Sigma).
For the calcium flux assay, 80% confluent cells were detached from the culture vessels with Versene (Gibco), and seeded into 384-well plates (Cell binding Surface; Corning, N.Y.; #3683) at a density of 15,000 cells per well. Cells were seeded in a volume of 50 μL in medium without antibiotics and incubated overnight in a humidified atmosphere with 5% CO2 at 37° C. […] The calcium indicator loaded cells were incubated at 37° C. for 2 hrs. Extracellular dye was then removed and each well was filled with 45 μL of assay buffer. Cell plates were kept in dark until used. Example compounds were assayed at 8 concentrations in triplicate. Serial 10-fold dilutions in 100% DMSO were made at a 100-times higher concentration than the final concentration, and then diluted 1:10 in assay buffer. 5 μL of each diluted compound was added to the well of cell plates (yielding final concentration with 1% DMSO), and incubated for 30 min at 28° C. before the addition of B1 receptor agonist on the FLIPR instrument.
Agonist plates contained the agonist Lys-(Des-Arg)-Bradykinin (Bachem, Brackley) at 3.5×EC90 in assay buffer with 1% DMSO. The addition of agonist 20 μl per well to the assay plate was carried out on the FLIPR instrument while continuously monitoring Ca^2+-dependent fluorescence at 538 nm. A peptide antagonist Lys-(Des-Arg-Leu)-Bradykinin (Bachem, Brackley) at 20 µM was used to determine the full inhibition as control.
Peak fluorescence was used to determine the response to agonist obtained at each concentration of example compound by the following equation:
% Response=100*(RFU(example compound)−RFU(control)/(RFU(DMSO)−RFU(control)) • Control=full inhibition by the peptide antagonist Lys-(Des-Arg-Leu)-Bradykinin at 20 μM
The response values were plotted against the logarithm of the compound concentrations. The compounds were tested in triplicates per plate and mean values were plotted in Excel XLfit to determine IC50 values, percentage of maximal inhibition and the Hill slopes.
On the technique in general: Calcium flux is commonly read through the fluorescence of an indicator in the cells.

The target of assay [1] is T2, native human B1 receptors (Homo sapiens, UniProt P46663).
T2 construct: which express native human B1 receptors after induction with human IL-1; Coriell Institute; host or cells: IMR-90 human foetal lung fibroblasts, induced with human IL-1
T2 sequence (P46663 1-353): T1 sequence (P46663 1-353)
Briefly: Calcium flux assay (FLIPR) with IMR-90 human foetal lung fibroblasts after IL-1 induction. The format is cell-based. The note with it: IMR-90 fibroblasts induced with human IL-1; 0.1% BSA in assay buffer; agonist Lys-(Des-Arg)-Bradykinin at EC90; read-out: hB1 IC50 IMR90. On the procedure: Calcium Flux Assay (FLIPR) with Human Fibroblasts for Bradykinin B1 Receptor Antagonist (hB1 IMR-90 IC50)
The Calcium flux Assay was carried out utilising IMR-90 human foetal lung fibroblasts (American Type Culture Collection, Rockville, Md.; and Coriell Institute, Camden, N.J.), which express native human B1 receptors after induction with human IL-1[…].
The fibroblasts were cultured in complete growth media comprised of Dulbecco's modified Eagle's medium (DMEM; Sigma) containing 10% foetal bovine serum, 4 mM L-glutamine, and 1% nonessential amino acids. The cells were maintained in a humidified atmosphere with 5% CO2 at 37° C. and were sub-cultured at a ratio of 1:3, every other day.
For the assay, IMR-90 fibroblasts were harvested using TrypLE Express (GIBCO/Invitrogen) and seeded into 384-well plates (Corning Cellbinding Surface, Cat. 3683) at a density of 15000 cells/well. The following day, cells were treated with 0.35 ng/mL human IL-1[…] in 10% FBS/MEM for 3 h to up-regulate B1 receptors. Induced cells were loaded with fluorescent calcium indicator by incubation with 2.5 μM Fluo-4/AM (Invitrogen) at 37° C., 5% CO2 for 2 h in the presence of 2.5 mM probenecid in 1% FBS/MEM. Extracellular dye was removed by washing with assay buffer (2.5 mM probenecid and 0.1% BSA in 20 mM HEPES/HBSS without bicarbonate or phenol red, pH 7.5). Example compounds were assayed at 8 concentrations in triplicate. After addition of example compounds to the cell plate and incubation for 30 min at 28° C., the addition of B1 agonist Lys-(Des-Arg)-Bradykinin (Bachem, Brackley) at a final concentration of EC90 was carried out on the FLIPR instrument while continuously monitoring Ca^2+-dependent fluorescence at 538 nm. A peptide antagonist Lys-(Des-Arg-Leu)-Bradykinin (Bachem, Brackley) at 20 μM was used to determine the full inhibition as control. IC50 values were determined by the same way described for the FLIPR assay with recombinant cells.

As a reminder, the IC50 is the point on the concentration scale where inhibition reaches its midpoint. Consider `Cc1cccc(C2CC2C(=O)Nc2ccc(-c3cnn(C4CCC4)c3)c(C(=O)O)c2)c1` (racemic) [Example 5, 2-(1-cyclobutyl-1H-pyrazol-4-yl)-5-({[2-(3-methylphenyl)cyclopropyl]carbonyl}amino) benzoic acid], for which the IC50 on human B1 receptor was determined as 110 nM.
In the case of `O=C(O)c1cc(NC(=O)C2CC2c2ccc(Cl)cc2)ccc1-c1cnn(C2CCC2)c1` (racemic) [Example 6, 5-({[2-(4-chlorophenyl)cyclopropyl]carbonyl}amino)-2-(1-cyclobutyl-1H-pyrazol-4-yl)benzoic acid], the IC50 at human B1 receptor is 272 nM.
Regarding `O=C(O)c1cc(NC(=O)C2CC2c2ccccc2OC(F)(F)F)ccc1-c1cnn(C2CCC2)c1` (racemic) [Example 10, 2-(1-cyclobutyl-1H-pyrazol-4-yl)-5-[({2-[2-(trifluoromethoxy)phenyl]cyclopropyl}carbonyl)amino]benzoic acid], the IC50 on human B1 receptor was 353 nM.
`O=C(O)c1cc(NC(=O)C2CC2c2cccc(C(F)(F)F)c2)ccc1-c1cnn(C2CCC2)c1` (racemic) [Example 12, 2-(1-cyclobutyl-1H-pyrazol-4-yl)-5-[({2-[3-(trifluoromethyl)phenyl]cyclopropyl}carbonyl)amino]benzoic acid]: the IC50 at human B1 receptor is 126 nM.
In the case of `CC(C)(C)c1cnn(-c2ccc(NC(=O)C3CC3c3ccc(Cl)cc3)cc2C(=O)O)c1` (racemic) [Example 13, 2-(4-tert-Butyl-1H-pyrazol-1-yl)-5-({[2-(4-chlorophenyl)cyclopropyl]carbonyl}amino)benzoic acid], the IC50 at human B1 receptor turned out to be 1760 nM; in assay [1] it was 3390 nM.
`CC(C)(C)c1ccn(-c2ccc(NC(=O)C3CC3c3ccc(Cl)cc3)cc2C(=O)O)n1` (racemic) [Example 14, 2-(3-tert-Butyl-1H-pyrazol-1-yl)-5-({[2-(4-chlorophenyl)cyclopropyl]carbonyl}amino)benzoic acid]: the IC50 on human B1 receptor was 2220 nM.
Take `Cc1ccc(-c2ccc(NC(=O)C3CC3c3ccc(Cl)cc3)cc2C(=O)O)cn1` (racemic) [Example 15, 5-({[2-(4-chlorophenyl)cyclopropyl]carbonyl}amino)-2-(6-methylpyridin-3-yl)benzoic acid]: the IC50 came to 2420 nM at human B1 receptor and 12000 nM in assay [1].
For the compound `CC(F)(F)c1ccc(-c2ccc(NC(=O)C3CC3c3ccccc3OC(F)(F)F)cc2C(=O)O)cn1` (racemic) [Example 16, 2-[6-(1,1-difluoroethyl)pyridin-3-yl]-5-[({2-[2-(trifluoromethoxy)phenyl]cyclopropyl}carbonyl)amino]benzoic acid], at human B1 receptor, the IC50 came to 2570 nM.
For the compound `CC(F)(F)c1ccc(-c2ccc(NC(=O)C3CC3c3cccc(Cl)c3)cc2C(=O)O)cn1` (racemic) [Example 17], the IC50 on human B1 receptor was determined as 2470 nM.
In the case of `CC(F)(F)c1ccc(-c2ccc(NC(=O)C3CC3c3cccc(C(F)(F)F)c3)cc2C(=O)O)cn1` (racemic) [Example 18, 2-[6-(1,1-difluoroethyl)pyridin-3-yl]-5-[({2-[3-(trifluoromethyl)phenyl]cyclopropyl}carbonyl)amino]bentoic acid], the IC50 at human B1 receptor came out at 2510 nM.
`CC(F)(F)c1ccc(-c2ccc(NC(=O)C3CC3c3ccc(Cl)cc3)cc2C(=O)O)cn1` (racemic) [Example 19, 5-({[2-(4-chlorophenyl)cyclopropyl]carbonyl}amino)-2-[6-(1,1-difluoroethyl)pyridin-3-yl]benzoic acid]: the IC50 at human B1 receptor was found to be 2490 nM.
On the same count and under the same terms, with `CCC(F)(F)c1ccc(-c2ccc(NC(=O)C3CC3c3ccccc3OC(F)(F)F)cc2C(=O)O)cn1` (racemic) [Example 20, 2-[6-(1,1-difluoropropyl)pyridin-3-yl]-5-[({2-[2-(trifluoromethoxy)phenyl]cyclopropyl}carbonyl)amino]benzoic acid] the figure was 1520 nM.
`CCC(F)(F)c1ccc(-c2ccc(NC(=O)C3CC3c3cccc(C(F)(F)F)c3)cc2C(=O)O)cn1` (racemic) [Example 21, 2-[6-(1,1-difluoropropyl)pyridin-3-yl]-5-[({2-[3-(trifluoromethyl)phenyl]cyclopropyl}carbonyl)amino]benzoic acid]: the IC50 on human B1 receptor was 403 nM.
For the compound `CCC(F)(F)c1ccc(-c2ccc(NC(=O)C3CC3c3cccc(Cl)c3)cc2C(=O)O)cn1` (racemic) [Example 22, 5-({[2-(3-chlorophenyl)cyclopropyl]carbonyl}amino)-2-[6-(1,1-difluoropropyl)pyridin-3-yl]benzoic acid], at human B1 receptor, the IC50 was found to be 1190 nM.
Same read-out and setting: with `O=C(O)c1cc(NC(=O)C2CC2c2ccc(Cl)cc2)ccc1-c1cnn(C2CCC2)c1` (single isomer, unassigned) [Example 7, 5-({[2-(4-chlorophenyl)cyclopropyl]carbonyl}amino)-2-(1-cyclobutyl-1H-pyrazol-4-yl)benzoic acid] the figure was 117 nM; with `O=C(O)c1cc(NC(=O)C2CC2c2cccc(Cl)c2)ccc1-c1cnn(C2CCC2)c1` (single isomer, unassigned) [Example 11, 5-({[2-(3-chlorophenyl)cyclopropyl]carbonyl}amino)-2-(1-cyclobutyl-1H-pyrazol-4-yl)benzoic acid], 32 nM; with `O=C(O)c1cc(NC(=O)C2CC2c2cccc(Cl)c2)cc(F)c1-c1cnn(C2CCC2)c1` (single isomer, unassigned; (+)) [Example 8, (+)-5-({[2-(3-chlorophenyl)cyclopropyl]carbonyl}amino)-2-(1-cyclobutyl-1H-pyrazol-4-yl)-3-fluorobenzoic acid], 1130 nM.
Take `O=C(O)c1cc(NC(=O)C2CC2c2cccc(Cl)c2)cc(F)c1-c1cnn(C2CCC2)c1` (single isomer, unassigned; (-)) [Example 9, (−)-5-({[2-(3-chlorophenyl)cyclopropyl]carbonyl}amino)-2-(1-cyclobutyl-1H-pyrazol-4-yl)-3-fluorobenzoic acid]: on human B1 receptor, the IC50 is 17 nM.
Take “(−)-5-({[trans-2-(4-chlorophenyl)cyclopropyl]carbonyl}amino)-2-(1-cyclobutyl-1H-pyrazol-4-yl)-3-fluorobenzoic acid [Example 4]”: on human B1 receptor, the IC50 was found to be 1180 nM.

For the origin of these results see patent US20190177279A1, “CARBOXYLIC ACID AROMATIC 1,2-CYCLOPROPYLAMIDES” (Bayer Pharma Aktiengesellschaft, priority 2017, published 2019).
